Laboratory results: patent publication US20080261824A1, “Rationale, methods, and assays for identifying novel taste cell genes and salty taste receptor targets and assays using these identified genes or gene products” (Senomyx, Inc., priority 2006, published 2008)

Experiments:
[1] = test system: perceived human salt intensity; assay: inventors' test of perceived human salt intensity; type: in vivo
Source text: Unlike other mammals, amiloride has been reported to only slightly reduce the intensity of sodium chloride taste, i.e., by about 15-20% when used at concentrations that specifically modulate ENaC function (Halpern, B. P. (1998) Neuroscience and Behavioral Reviews. 23: 5-47). […] Thus, additional non-ENaC genes are likely involved in human salt taste.

[2] = test system: sodium chloride taste; details: concentrations that specifically modulate ENaC function; cited from earlier work

Structure (SMILES)	effect on perceived human salt intensity ([1]; tested at 3000-fold above IC50 for alpha beta gamma ENaC (100-fold over IC50 for delta beta gamma ENaC), levels printed for benzamil)	reduction of the intensity of sodium chloride taste [2]	effect on perceived human salt intensity ([1]; tested at 300-fold above IC50 for alpha beta gamma ENaC (10-fold over IC50 for delta beta gamma ENaC))
NC(=Nc1ccccc1)NC(=O)c1nc(Cl)c(N)nc1N [phenamil]	did not elicit a significant effect	–	–
N=C(N)NC(=O)c1nc(Cl)c(N)nc1N [amiloride]	–	15-20%	did not elicit a significant effect
